From PubChem BioAssay (NCI)
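Briefly, cells in 96-well plates were exposed to five compound concentrations for 48 h, and endpoints were estimated by linear interpolation. TGI: total growth inhibition.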

Experiments:
Assay in all cases: inhibition of tumour cell growth, NCI panel, 48 h
CCRF-CEM leukemia = system: CCRF-CEM leukemia
A549 NSCLC = system: A549 NSCLC
NCI-H460 lung = system: NCI-H460 lung
SF-268 CNS = system: SF-268 CNS
DU-145 prostate = system: DU-145 prostate
NCI-H522 lung = system: NCI-H522 lung
LOX IMVI melanoma = system: LOX IMVI melanoma
HCT-116 colon = system: HCT-116 colon
HCC-2998 colon = system: HCC-2998 colon
SF-539 CNS = system: SF-539 CNS
NCI-H23 lung = system: NCI-H23 lung
MALME-3M melanoma = system: MALME-3M melanoma
OVCAR-8 ovarian = system: OVCAR-8 ovarian
OVCAR-3 ovarian = system: OVCAR-3 ovarian
KM12 colon = system: KM12 colon
MDA-MB-435 = system: MDA-MB-435
SN12C renal = system: SN12C renal
HS 578T breast = system: HS 578T breast
EKVX NSCLC = system: EKVX NSCLC
HOP-92 NSCLC = system: HOP-92 NSCLC
NCI/ADR-RES ovarian = system: NCI/ADR-RES ovarian
SNB-19 CNS = system: SNB-19 CNS
COLO 205 colon = system: COLO 205 colon
HT29 colon = system: HT29 colon
UACC-257 melanoma = system: UACC-257 melanoma
IGROV1 ovarian = system: IGROV1 ovarian
HL-60(TB) leukemia = system: HL-60(TB) leukemia
SK-MEL-5 melanoma = system: SK-MEL-5 melanoma
MOLT-4 leukemia = system: MOLT-4 leukemia
SK-MEL-28 melanoma = system: SK-MEL-28 melanoma
A498 renal = system: A498 renal
786-0 renal = system: 786-0 renal
SF-295 CNS = system: SF-295 CNS
MCF7 breast = system: MCF7 breast
TK-10 renal = system: TK-10 renal
OVCAR-4 ovarian = system: OVCAR-4 ovarian
SK-OV-3 ovarian = system: SK-OV-3 ovarian
BT-549 breast = system: BT-549 breast
SR leukemia = system: SR leukemia
MDA-MB-231 breast = system: MDA-MB-231 breast
PC-3 prostate = system: PC-3 prostate
HOP-62 NSCLC = system: HOP-62 NSCLC
SK-MEL-2 melanoma = system: SK-MEL-2 melanoma
ACHN renal = system: ACHN renal
RPMI-8226 leukemia = system: RPMI-8226 leukemia
UO-31 renal = system: UO-31 renal
MDA-N = system: MDA-N
SW-620 colon = system: SW-620 colon
UACC-62 melanoma = system: UACC-62 melanoma
CAKI-1 renal = system: CAKI-1 renal
K-562 leukemia = system: K-562 leukemia
T-47D breast = system: T-47D breast
U251 CNS = system: U251 CNS
RXF 393 renal = system: RXF 393 renal
HCT-15 colon = system: HCT-15 colon
M14 melanoma = system: M14 melanoma
OVCAR-5 ovarian = system: OVCAR-5 ovarian

## O=C(n1c(=O)n(-c2ccc(Cl)cc2)c(=O)n1C(=O)C(Cl)(Cl)Cl)C(Cl)(Cl)Cl
CCRF-CEM leukemia
  TGI: > 100 µM
A549 NSCLC
  TGI: > 100 µM
NCI-H460 lung
  TGI: > 100 µM
SF-268 CNS
  TGI: > 100 µM
DU-145 prostate
  TGI: > 100 µM
NCI-H522 lung
  TGI: > 100 µM
LOX IMVI melanoma
  TGI: > 100 µM
HCT-116 colon
  TGI: > 100 µM
HCC-2998 colon
  TGI: > 100 µM
SF-539 CNS
  TGI: > 100 µM
NCI-H23 lung
  TGI: > 100 µM
MALME-3M melanoma
  TGI: > 100 µM
OVCAR-8 ovarian
  TGI: > 100 µM
OVCAR-3 ovarian
  TGI: > 100 µM
KM12 colon
  TGI: > 100 µM
MDA-MB-435
  TGI: > 100 µM
SN12C renal
  TGI: > 100 µM
HS 578T breast
  TGI: > 100 µM
EKVX NSCLC
  TGI: > 100 µM
HOP-92 NSCLC
  TGI: > 100 µM
NCI/ADR-RES ovarian
  TGI: > 100 µM
SNB-19 CNS
  TGI: > 100 µM
COLO 205 colon
  TGI: > 100 µM
HT29 colon
  TGI: > 100 µM
UACC-257 melanoma
  TGI: > 100 µM
IGROV1 ovarian
  TGI: > 100 µM
HL-60(TB) leukemia
  TGI: > 100 µM
SK-MEL-5 melanoma
  TGI: > 100 µM
MOLT-4 leukemia
  TGI: > 100 µM
SK-MEL-28 melanoma
  TGI: > 100 µM
A498 renal
  TGI: > 100 µM
786-0 renal
  TGI: > 100 µM
SF-295 CNS
  TGI: > 100 µM
MCF7 breast
  TGI: > 100 µM
TK-10 renal
  TGI: > 100 µM
OVCAR-4 ovarian
  TGI: > 100 µM
SK-OV-3 ovarian
  TGI: > 100 µM
BT-549 breast
  TGI: > 100 µM
SR leukemia
  TGI: > 100 µM
MDA-MB-231 breast
  TGI: > 100 µM
PC-3 prostate
  TGI: > 100 µM
HOP-62 NSCLC
  TGI: > 100 µM
SK-MEL-2 melanoma
  TGI: > 100 µM
ACHN renal
  TGI: > 100 µM
RPMI-8226 leukemia
  TGI: > 100 µM
UO-31 renal
  TGI: > 100 µM
MDA-N
  TGI: > 100 µM
SW-620 colon
  TGI: > 100 µM
UACC-62 melanoma
  TGI: > 100 µM
CAKI-1 renal
  TGI: > 100 µM
K-562 leukemia
  TGI: > 100 µM
T-47D breast
  TGI: > 100 µM
U251 CNS
  TGI: > 100 µM

## CN(C)CCCNc1ccc2nnn3c4ccc(OC(=O)c5ccc([N+](=O)[O-])cc5)cc4c(=O)c1c23
CCRF-CEM leukemia
  TGI: 5.39 µM
A549 NSCLC
  TGI: 20.6 µM
NCI-H460 lung
  TGI: 17.9 µM
SF-268 CNS
  TGI: 21.9 µM
DU-145 prostate
  TGI: 18.3 µM
NCI-H522 lung
  TGI: 24 µM
LOX IMVI melanoma
  TGI: > 100 µM
HCT-116 colon
  TGI: 32.7 µM
HCC-2998 colon
  TGI: 25.5 µM
SF-539 CNS
  TGI: 19.3 µM
NCI-H23 lung
  TGI: 24.5 µM
MALME-3M melanoma
  TGI: 27.2 µM
OVCAR-8 ovarian
  TGI: 20.8 µM
OVCAR-3 ovarian
  TGI: 24.1 µM
KM12 colon
  TGI: 21.3 µM
MDA-MB-435
  TGI: 20.2 µM
SN12C renal
  TGI: 19.6 µM
HS 578T breast
  TGI: 34.8 µM
EKVX NSCLC
  TGI: 25.1 µM
HOP-92 NSCLC
  TGI: > 57.6 µM
NCI/ADR-RES ovarian
  TGI: 37.5 µM
SNB-19 CNS
  TGI: 22.8 µM
COLO 205 colon
  TGI: 18.2 µM
HT29 colon
  TGI: 20.6 µM
UACC-257 melanoma
  TGI: 31 µM
RXF 393 renal
  TGI: 9.08 µM
IGROV1 ovarian
  TGI: > 100 µM
MOLT-4 leukemia
  TGI: 33.2 µM
SK-MEL-28 melanoma
  TGI: 26.6 µM
A498 renal
  TGI: 49.1 µM
786-0 renal
  TGI: 16.6 µM
SF-295 CNS
  TGI: 20.5 µM
MCF7 breast
  TGI: > 38.9 µM
TK-10 renal
  TGI: 24.9 µM
OVCAR-4 ovarian
  TGI: 10.9 µM
SK-OV-3 ovarian
  TGI: 26.7 µM
BT-549 breast
  TGI: 35.8 µM
SR leukemia
  TGI: 11.5 µM
MDA-MB-231 breast
  TGI: 23.3 µM
PC-3 prostate
  TGI: 17.5 µM
HOP-62 NSCLC
  TGI: > 33.1 µM
SK-MEL-2 melanoma
  TGI: > 52.1 µM
HCT-15 colon
  TGI: 24.1 µM
ACHN renal
  TGI: 14.1 µM
M14 melanoma
  TGI: 27 µM
RPMI-8226 leukemia
  TGI: 18.6 µM
UO-31 renal
  TGI: 21 µM
MDA-N
  TGI: 26 µM
SW-620 colon
  TGI: 17 µM
UACC-62 melanoma
  TGI: 37 µM
OVCAR-5 ovarian
  TGI: 28 µM
CAKI-1 renal
  TGI: 7.59 µM
K-562 leukemia
  TGI: 18.9 µM
T-47D breast
  TGI: 88.5 µM
U251 CNS
  TGI: 33.9 µM
